Laboratory results taken from patent US10753941B2, “Biocompatible nanoparticles with aggregation induced emission characteristics as fluorescent bioprobes and methods of using the same for in vitro and in vivo imaging” (The Hong Kong University of Science and Technology, priority 2011, dated 2020).
Like-named read-outs stand apart in the source and are kept apart here. Blank lines part the entries; values can stand above or below the compound they belong to. Residues, ends and D or L forms follow the SMILES beside them. *: point of attachment. X1 = O=C(CCCc1cn(Cc2ccc(C(=C(c3ccccc3)c3ccccc3)c3ccccc3)cc2)nn1)*

How the values were obtained:
[1] = Water solubility / aggregation of probes in water (LLS, PL); format: physicochemical; details: for average diameter of nanoaggregates in water (LLS): DMSO/water v/v=1:199, 10 μM
Excerpt: FIG. 32A illustrates the UV-vis absorption spectra of BATPS (5) and TPS-2cRGD. Both have a similar absorption profile with the maximum at 356 nm. The corresponding photoluminescence (PL) spectra are shown in FIG. 32B, along with the photographs taken under UV irradiation. It is known that AIE fluorogens are virtually non-fluorescent in good solvents but emit intensely when aggregated in poor solvents.
It is well known that AIE dye is virtually non-luminescent in good solvents but emits intensely when aggregated in its poor solvents. […] The excited states are readily annihilated by the intramolecular rotations of phenyl rings. Therefore, very low fluorescence was observed.

[2] = target: T1, caspase-3 (Homo sapiens, UniProt P42574); experiment: Caspase turn-on assay of AcDEVDK-TPE; format: biochemical
T1 construct: purchased R&D Systems
T1 sequence (P42574 29-175 limits assumed): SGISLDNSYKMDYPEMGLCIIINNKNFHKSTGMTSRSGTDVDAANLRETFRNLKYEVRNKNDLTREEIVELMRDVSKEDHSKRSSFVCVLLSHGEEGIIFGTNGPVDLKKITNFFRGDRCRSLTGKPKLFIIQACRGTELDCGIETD
T1 sequence (P42574 176-277 limits assumed): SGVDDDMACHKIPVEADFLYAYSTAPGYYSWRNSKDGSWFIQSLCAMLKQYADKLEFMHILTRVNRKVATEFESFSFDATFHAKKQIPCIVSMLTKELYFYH
Excerpt: (§1) Cleavage of the peptide substrates AcDEVDK-TPE by caspase-3 or caspase-7 was monitored in quartz cells or in black flatbottom polypropylene 384-well plates (Nunc, USA). The corresponding concentrations of substrate and enzymes were used for each assay. Enzymatic cleavage of the substrates was monitored by fluorescence increase (excitation and emission wavelengths at 312 nm and 480 nm respectively) with on a Perkin-Elmer LS 55 spectrofluorometer or a Synergy TM 2 multi-mode microplate reader (Biotek Instruments).

[3] = target: T2, caspase-7 (Homo sapiens, UniProt P55210); experiment: Caspase turn-on assay of AcDEVDK-TPE; format: biochemical
T2 construct: purchased R&D Systems
T2 sequence (P55210 24-198 limits assumed): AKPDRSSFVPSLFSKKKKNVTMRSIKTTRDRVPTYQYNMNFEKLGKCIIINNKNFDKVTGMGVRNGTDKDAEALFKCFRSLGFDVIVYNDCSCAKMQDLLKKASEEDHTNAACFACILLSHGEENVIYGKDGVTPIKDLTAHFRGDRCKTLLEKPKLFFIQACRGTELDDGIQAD
T2 sequence (P55210 207-303 limits assumed): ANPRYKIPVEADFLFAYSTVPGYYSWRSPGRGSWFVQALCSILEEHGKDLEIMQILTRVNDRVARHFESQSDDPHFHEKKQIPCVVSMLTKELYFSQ
Excerpt: as §1

[4] = test system: BSA, HSA, Lysozyme, Pepsin and Trypsin; experiment: Selectivity of AcDEVDK-TPE against other proteins; format: biochemical; details: 20 μg mL^−1 protein, 5 μM probe
Procedure: AcDEVDK-TPE was treated with five other enzymes which are widely present in cells, such as BSA, HSA, Lysozyme, Pepsin and Trypsin under the same conditions.

[5] = test system: HeLa cells; experiment: Apoptosis imaging in live cells with AcDEVDK-TPE; format: cell-based, human; details: 5 μM probe
Procedure: The cells were cultured in the chambers (LAB-TEK, Chambered Coverglass System) at 37° C., respectively. After 80% confluence, the adherent cells were washed twice with 1×PBS buffer. The AcDEVD-TPE solution (5 μM, 0.3 mL) was then added to the chamber. After incubation for 2 h at 37° C., cells were washed two times with 1×PBS buffer. To induce apoptosis, cells were incubated with 1.0 μM of staurosporine for 1 hr and then imaged immediately by confocal laser scanning microscope (CLSM, Zeiss LSM 410, Jena, Germany) with imaging software (Fluoview FV500). The images are analyzed by ImageJ 1.43× program (developed by NIH).

[6] = test system: MCF-7 cancer cells; experiment: Long term cellular tracking with two-photon fluorescence imaging; format: cell-based; details: 1 μM, 4 h incubation; FTNPs two-photon 800 nm, MTR one-photon 560 nm
Procedure: The performance of FTNPs in MCF-7 cancer cell tracking was investigated and compared with that of commercial Mitotracker red (MTR).
MCF-7 breast cancer cells were cultured in Dulbecco's Modified Eagle Medium (DMEM) containing 10% fetal bovine serum and 1% penicillin streptomycin at 37° C. in a humidified environment containing 5% CO2.
Prior to the experiment, MCF-7 breast cancer cells were pre-cultured until confluence was reached. After incubation with FTNPs and Mitotracker red (MTR) in DMEM medium (FBS-free) at 1 μM T1 and MTR for 4 h at 37° C., respectively, the corresponding cells were detached by 1× tripsin and suspended in culture medium with different cell densities. The cells were then cultured on round coverslip in 35 mm petri dishes for 0, 1, 2, 3, 4 and 5 days, respectively. After designated time intervals, the medium was removed and the adherent cells were washed twice with 1×PBS buffer, followed by fixation using 75% ethanol for 20 minutes. The cells were further washed twice with 1×PBS buffer and the coverslips were then mounted on glass slides using mounting medium in purpose of long-term storage. […] The detection of two-photon excited fluorescence of FTNPs was achieved by excitation at 800 nm with a 600-800 nm bandpass filter. On the other hand, the one-photon excited fluorescence signal from MTR was collected with a 600-800 nm bandpass filter upon 560 nm excitation.

[7] = target: T3, human integrin αvβ3 (Homo sapiens, UniProt P05106+P06756); experiment: Titration of TPS-2cRGD with integrin (fluorescence turn-on); format: binding
T3 construct: purchased ImmunoCell
Procedure: (§2) 5 μL of the protein stock solution was diluted with 40 μL of 1×PBS buffer (pH 7.4). 5 μL of TPS-2cRGD (10 μM) was then added and the reaction mixture was incubated at room temperature for 30 min. The reaction mixture was then diluted to a total of 300 μL with deionized water for photoluminescence measurement. The solution was excited at 356 nm, and the emission was collected from 380 to 650 nm.

[8] = test system: lysozyme, papain, trypsin and BSA; experiment: Titration of TPS-2cRGD with other proteins (selectivity); format: binding; details: 100 μg mL^−1 protein
Procedure: as §2

[9] = test system: HT-29 colon cancer cells with overexpressed integrin αvβ3; experiment: Confocal imaging at 4° C. with TPS-2cRGD; format: cell-based
Procedure: (§3) Before the detection of integrin αvβ3, HT-29 and MCF-7 cells were cultured in the chambers (LAB-TEK, Chambered Coverglass System) at 37° C., respectively. After 80% confluence, the adherent cells were washed twice with 1×PBS buffer. The TPS-2cRGD solution (2 μM, 0.3 mL) was then added to the chamber. After incubation for 30 min at 4° C., cells were washed two times with 1×PBS buffer and then treated with membrane tracker for 10 min and further washed twice with 1×PBS buffer. The cells were then imaged immediately by confocal laser scanning microscope (CLSM, Zeiss LSM 410, Jena, Germany) with imaging software (Fluoview FV500). The images are analyzed by ImageJ 1.43× program (developed by NIH). The images were taken upon excitation at 405 nm (5% laser power) with a band pass 505-525 nm filter for the probe, and 543 nm (5% laser power) with a band pass 575-635 nm filter for the membrane tracker.

[10] = test system: MCF7 breast cancer cells with low integrin αvβ3 expression; experiment: Confocal imaging at 4° C. with TPS-2cRGD; format: cell-based; details: 2 μM, 30 min
Procedure: as §3

[11] = test system: HT-29 cells; experiment: Real-time uptake imaging of TPS-2cRGD; format: cell-based; details: 2 μM, room temperature
Procedure: HT-29 cells were cultured in the 8-wells chambers (LAB-TEK, Chambered Coverglass System) at 37° C. After 80% confluence, the adherent cells were washed twice with 1×PBS buffer. The TPS-2cRGD solution (2 μM, 0.3 mL) and a small amount of membrane tracker were then added to the chamber. The chambers were placed on the microscope platform immediately and the microscope focused on a collection of cells. The fluorescence images (405 nm excitation and with a band pass 505-525 nm filter for the probe, and 543 nm excitation with a band pass 575-635 nm filter for the membrane tracker) acquired every 5 min.

[12] = MTT cytotoxicity of TPS-2cRGD; format: cell-based; details: human, HT-29 cancer cells; 2, 5 and 10 μM for 12, 24 and 48 h; read-out: metabolic viability
Procedure: Methylthiazolyldiphenyl-tetrazolium (MTT) assays were used to assess the metabolic activity of HT-29 cancer cells to study the cytotoxicity of TPS-2cRGD. HT-29 cells were seeded in 96-well plates (Costar, Ill., USA) at an intensity of 4×10^4 cells mL^−1. After 24 h incubation, the medium was replaced by the TPS-2cRGD suspension at concentrations of 2, 5, and 10 μM, and the cells were then incubated for 12, 24 and 48 h, respectively. After the designated time intervals, the wells were washed twice with 1×PBS buffer and 100 μL of freshly prepared MTT (0.5 mg mL^−1) solution in culture medium was added into each well. The MTT medium solution was carefully removed after 3 h incubation in the incubator at 37° C. DMSO (100 μL) was then added into each well and the plate was gently shaken to dissolve all the precipitates formed. The absorbance of MTT at 570 nm was monitored by the microplate reader (Genios Tecan). Cell viability was expressed by the ratio of absorbance of the cells incubated with TPS-2cRGD suspension to that of the cells incubated with culture medium only.

[13] = target: T1, caspase-3; experiment: Caspase-3 turn-on and hydrolysis of E/Z-TPE-2DEVD; format: biochemical; details: for fluorescence turn-on with caspase-3: 10 μM probe, PIPES buffer, caspase-3 100 pM, 37° C.; for rate of enzyme activated hydrolysis (HPLC): recombinant caspase-3 in buffer
Procedure: Both have a similar absorption profile with an obvious absorbance in the 270-380 nm range.
The enzyme kinetic studies by incubating recombinant caspase-3 with E/Z-TPE-2DEVD in buffer at 37° C. were subsequently performed, and the changes in probe hydrolysis were monitored with HPLC. DMSO stock solutions of TPE-2DEVD were diluted with caspase-3assay buffer (50 mM PIPES, 100 mM NaCl, 1 mM EDTA, 0.1% w/v CHAPS, 25% w/v sucrose, pH=7.2) to make 10 μM working solutions. 5 μL of the recombinant caspase-3 (˜0.04 μg/μL stock solution in assay buffer) was added into the above working solution. The reaction mixture was incubated at room temperature for 60 min and was then diluted to a total of 300 μL with deionized water for photoluminescence measurement. The solution was excited at 312 nm, and the emission was collected from 360 to 600 nm.

[14] = test system: caspase-3, pepsin, BSA, trypsin, papain and lysozyme; details: protein 100 pM, identical conditions
Procedure: To further investigate the probe selectivity, Z-TPE-2DEVD was treated with several proteins, such as caspase-3, pepsin, BSA, trypsin, papain and lysozyme, under identical conditions.

[15] = inferred from weak fluorescence / LLS

T3 sequence (P06756 31-1048): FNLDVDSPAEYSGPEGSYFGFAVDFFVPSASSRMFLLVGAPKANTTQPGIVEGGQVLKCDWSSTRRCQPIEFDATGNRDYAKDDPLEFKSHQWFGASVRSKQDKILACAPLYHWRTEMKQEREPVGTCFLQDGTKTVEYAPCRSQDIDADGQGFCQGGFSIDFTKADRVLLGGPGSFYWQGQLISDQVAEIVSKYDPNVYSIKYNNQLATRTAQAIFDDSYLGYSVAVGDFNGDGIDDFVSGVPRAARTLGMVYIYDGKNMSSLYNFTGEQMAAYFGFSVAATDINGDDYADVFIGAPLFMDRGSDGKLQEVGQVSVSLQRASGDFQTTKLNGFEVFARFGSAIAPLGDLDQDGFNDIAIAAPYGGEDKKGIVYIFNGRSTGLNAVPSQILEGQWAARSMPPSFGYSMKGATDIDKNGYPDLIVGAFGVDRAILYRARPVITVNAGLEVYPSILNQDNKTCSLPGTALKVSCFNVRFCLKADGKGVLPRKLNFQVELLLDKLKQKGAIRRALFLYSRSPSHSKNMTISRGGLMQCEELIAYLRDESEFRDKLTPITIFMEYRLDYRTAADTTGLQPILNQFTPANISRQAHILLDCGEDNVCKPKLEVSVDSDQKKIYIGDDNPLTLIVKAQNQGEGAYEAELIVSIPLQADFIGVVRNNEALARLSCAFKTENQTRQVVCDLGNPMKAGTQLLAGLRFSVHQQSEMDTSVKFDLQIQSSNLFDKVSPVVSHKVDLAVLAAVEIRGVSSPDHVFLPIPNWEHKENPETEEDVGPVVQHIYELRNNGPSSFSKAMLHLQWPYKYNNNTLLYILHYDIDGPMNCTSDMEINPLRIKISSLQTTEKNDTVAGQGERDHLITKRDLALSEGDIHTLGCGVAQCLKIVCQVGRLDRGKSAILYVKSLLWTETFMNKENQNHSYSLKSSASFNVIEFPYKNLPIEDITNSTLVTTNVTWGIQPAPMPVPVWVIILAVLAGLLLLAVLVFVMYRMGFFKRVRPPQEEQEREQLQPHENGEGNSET
T3 sequence (P05106 27-788): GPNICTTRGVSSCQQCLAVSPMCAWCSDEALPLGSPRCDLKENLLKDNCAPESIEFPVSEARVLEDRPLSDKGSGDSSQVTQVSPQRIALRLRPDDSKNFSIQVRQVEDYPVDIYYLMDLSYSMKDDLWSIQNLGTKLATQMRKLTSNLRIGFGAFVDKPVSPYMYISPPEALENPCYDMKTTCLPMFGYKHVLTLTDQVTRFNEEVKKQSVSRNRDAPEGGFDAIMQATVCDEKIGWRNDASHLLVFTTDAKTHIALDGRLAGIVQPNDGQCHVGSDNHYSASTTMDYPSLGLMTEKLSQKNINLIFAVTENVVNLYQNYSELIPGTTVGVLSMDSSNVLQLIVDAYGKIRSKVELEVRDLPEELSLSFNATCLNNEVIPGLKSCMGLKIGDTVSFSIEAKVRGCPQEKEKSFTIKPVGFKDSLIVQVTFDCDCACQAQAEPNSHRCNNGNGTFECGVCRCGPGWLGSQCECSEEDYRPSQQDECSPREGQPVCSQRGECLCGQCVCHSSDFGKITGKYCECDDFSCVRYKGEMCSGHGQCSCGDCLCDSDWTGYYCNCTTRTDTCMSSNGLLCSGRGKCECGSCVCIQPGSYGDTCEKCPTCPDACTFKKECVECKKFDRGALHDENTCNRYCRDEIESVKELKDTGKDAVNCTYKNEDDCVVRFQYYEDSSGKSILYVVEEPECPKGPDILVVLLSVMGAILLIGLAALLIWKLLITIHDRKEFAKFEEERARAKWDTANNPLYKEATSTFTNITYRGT

Compound: C[Si]1(C)C(c2ccc(CN=[N+]=[N-])cc2)=C(c2ccccc2)C(c2ccccc2)=C1c1ccc(CN=[N+]=[N-])cc1 [BATPS, 1,1-dimethyl-2,5-bis[4-(azidomethyl)phenyl]-3,4-diphenylsilole]
average diameter of nanoaggregates in water (LLS) [1]: 103 nm

fluorescence on incubation with caspase-3 ([2]; 0 to 120 min): time-dependent increase in fluorescence
fluorescence enhancement with caspase-3 ([2]; 5 μM probe, 200 pM caspase-3): up to ten-fold fluorescence enhancement
fluorescence with caspase-3 pretreated with inhibitor ([2]; 10 μM caspase inhibitor): no fluorescence turn-on
fluorescence on incubation with caspase-7 ([3]; 0 to 120 min): time-dependent increase in fluorescence
fluorescence with caspase-7 pretreated with inhibitor ([3]; 10 μM caspase inhibitor): no fluorescence turn-on
Compound: CC(=O)N[C@@H](CC(=O)O)C(=O)N[C@@H](CCC(=O)O)C(=O)N[C@H](C(=O)N[C@@H](CC(=O)O)C(=O)N[C@@H](CCCCNC(=O)CCCc1cn(Cc2ccc(C(=C(c3ccccc3)c3ccccc3)c3ccccc3)cc2)nn1)C(N)=O)C(C)C [AcDEVDK-TPE] (Ac-DEVDK(X1)-NH2)
solubility in water [1]: good solubility in water
change of PL intensity with other proteins [4]: very little change of PL intensity
fluorescence in nonapoptotic cells [5]: very weak green fluorescence
fluorescence in apoptotic cells ([5]; apoptosis induced with staurosporine): strong green fluorescence

Compound: ClCc1ccc(C2=c3cc4c5c(c3Oc3c2cc2c6c3CCCN6CCC2)CCC[N+]=5CCC4)cc1.[Cl-] [MTR]
time over which fluorescence in treated cells is sustained / detectable [6]: 1 days

Compound: C[Si]1(C)C(c2ccc(Cn3cc(C[C@@H]4NC(=O)[C@@H](Cc5ccccc5)NC(=O)[C@H](CC(=O)O)NC(=O)CNC(=O)[C@H](CCCNC(=N)N)NC4=O)nn3)cc2)=C(c2ccccc2)C(c2ccccc2)=C1c1ccc(Cn2cc(C[C@@H]3NC(=O)[C@@H](Cc4ccccc4)NC(=O)[C@H](CC(=O)O)NC(=O)CNC(=O)[C@H](CCCNC(=N)N)NC3=O)nn2)cc1 [TPS-2cRGD]
average diameter of nanoaggregates in water (LLS) [1]: no detectable signal
solubility in water [1, 15]: good solubility in water
fluorescence enhancement on incubation with integrin αvβ3 ([7]; 10 μM probe, integrin 0 to 100 μg mL^−1): up to a seven-fold fluorescence enhancement
limit of detection for integrin αvβ3 in solution ([7]; three times the standard deviation): 4 µg/mL
change of PL intensity with other proteins [8]: very little change of PL intensity
fluorescent signal of live cells (CLSM) ([9]; 2 μM, 30 min, 4° C.): strong fluorescent signal
fluorescent signal after pre-treatment with free cyclic RGD peptide ([9]; 10 μM cyclic RGD peptide, then 2 μM probe): significantly reduced
fluorescent signal of live cells (CLSM) [10]: very weak fluorescence
incubation time after which the probe is gradually internalized within cells [11]: > 25 min
viability [12]: ~100%

Compound: E-TPE-2DEVD: stereoisomer of Asp-Glu-Val-Asp (DEVD) peptide-conjugated TPE probe (TPE-2DEVD)
solubility in water [1, 15]: good solubility in water
fluorescence turn-on with caspase-3 [13]: strong fluorescence signals
rate of enzyme activated hydrolysis (HPLC) [13]: faster

Compound: Z-TPE-2DEVD: stereoisomer of Asp-Glu-Val-Asp (DEVD) peptide-conjugated TPE probe (TPE-2DEVD)
solubility in water [1, 15]: good solubility in water
fluorescence turn-on with caspase-3 [13]: stronger fluorescence enhancement
rate of enzyme activated hydrolysis (HPLC) [13]: slower hydrolysis rate
probe selectivity, changes in (I−I0)/I0 [14]: specific probe for caspase-3
